# Test results: article PMC10304470, “Characterization of the Antimicrobial Activities of Trichoplusia ni Cecropin A as a High-Potency Therapeutic against Colistin-Resistant Escherichia coli” (Pharmaceutics, 2023)
# Peptide text beside a SMILES is read from it.
# How the values were obtained:
# ColREC 12 = test: Biofilm inhibition assay, crystal violet; assay type: cell-based, Escherichia coli; conditions: ColREC 12, 2 μM peptide, 16 h
# Description: To quantify the biofilm inhibitory activity of each peptide, ColREC 1557 and ColREC 12 were cultured in Luria–Bertani (LB) broth overnight and then sub-cultured in MH broth. Different concentrations of peptide (from 1 μM to 64 μM) were prepared in 96-well plates using MH broth (containing 0.2% glucose) and incubated with bacteria (2 × 10^5 cells/mL) at 37 °C for 16 h. After incubation, the culture medium was removed and methanol was added as a fixative for 15 min. The completely dried plates were stained for 2 h by adding 100 μL of staining solution (0.1% (w/v) crystal violet in 0.25% (v/v) acetic acid). The residual staining solution was gently rinsed off three times using distilled water. Subsequently, 90% ethanol was used to dissolve the dye, and absorbance was measured at 600 nm. The untreated bacterial group was used as a control to compare biofilm production rates.
# [1] = tested on: colistin-resistant E. coli NMS 12 (ColREC 12); assay type: cell-based, Escherichia coli; conditions: MH broth, 2 × 10^5 cells/mL, 16 h, 37 °C, OD600, >95% killing
# From the text: (§1) E. coli (KCTC 1682) was obtained from the Korean Collection for Type Cultures (KCTC, Jeongeup, Republic of Korea), and Acinetobacter baumannii (KCCM 40203) and Pseudomonas aeruginosa (KCCM 11328) from the Korea Culture Center of Microorganisms (KCCM, Seoul, Republic of Korea). Klebsiella pneumoniae (NCCP 16054), colistin-resistant E. coli NMA 1557 (ColREC 1557), NMS 12 (ColREC 12), and colistin-resistant A. baumannii NMS 1915 (ColRAB 1915), as well as colistin-resistant K. pneumoniae NMS 139 (ColRKP 139), were obtained from the National Institute of Health Multidrug Resistant Bacteria Specialized Pathogen Resources Bank (Osong, Republic of Korea).
# (§2) The antibacterial abilities of the peptides (T. ni cecropin, cecropin A, polymyxin B, colistin, and melittin) were determined using the broth dilution method as previously reported. The peptides dissolved at 10 mg/mL in deionized water were serially diluted from 64 μM to 0.5 μM in 96-well plates using Mueller–Hinton (MH) broth, and bacteria cultured to exponential growth were added at 2 × 10^5 cells/mL. The group of bacteria that grew untreated in the broth was set as the positive control, and the uninoculated broth as the negative control. Dissolved peptides are colorless and equal to the OD value of the medium only. After 16 h incubation at 37 °C, the absorbance at 600 nm was measured using a SpectraMAX microplate reader (Molecular Devices, San Jose, CA, USA).
# [2] = tested on: colistin-resistant E. coli NMA 1557 (ColREC 1557); assay type: cell-based, Escherichia coli; conditions: MH broth, 2 × 10^5 cells/mL, 16 h, 37 °C, OD600, >95% killing
# From the text: as §1, §2
# E. coli (KCTC 1682) = assay type: cell-based, Escherichia coli; conditions: KCTC 1682, 16 h
# From the text: as §1, §2
# [3] = tested on: LPS-stimulated RAW 264.7 cells; test: IL-6 secretion in LPS-stimulated macrophages, ELISA; assay type: cell-based, mouse; conditions: 5 μM peptide, 1 h pretreatment, 20 ng/mL LPS, 16 h
# Description: Murine macrophage RAW 264.7 cells were used to measure the anti-inflammatory activities of peptides. Culture plates (96-well) were seeded at a density of 1 × 10^5 cells/well and stimulated with 20 ng/mL LPS (O111:B4; Sigma-Aldrich) for 16 h after 1 h pretreatment with each concentration of peptide (0.6 to 10 μM). The control is an untreated cell. The culture supernatant was added to an equal volume of Griess reagent (Sigma-Aldrich), and the absorbance was measured at 540 nm. Nitrite production was quantified using a standard curve constructed using NaNO2.
# (§3) Interleukin-6 (IL-6)-specific enzyme-linked immunosorbent assays (ELISA; R&D Systems, Minneapolis, MN, USA) were performed according to the method specified by the manufacturer. Briefly, cell culture supernatants were added to immune plates treated with the capture antibody, followed by the detection antibody and streptavidin-horseradish peroxidase. For each step, the plates were washed twice with PBS containing 0.05% Tween 20. The plates were incubated with tetramethylbenzidine substrate (Invitrogen, Carlsbad, CA, USA), and the reaction was stopped with 2 N H2SO4 to measure absorbance at 450 nm. A standard graph of each marker was plotted and quantified.
# L-929 cells = test: Cytotoxicity, WST-8; assay type: cell-based, mouse; conditions: up to 100 μM peptide, 24 h
# Description: (§4) Murine macrophage RAW 264.7 cells and mouse fibroblast L-929 cells were used for research and were purchased from the Korea Cell Line Bank (Seoul, Republic of Korea). Both cells were cultured in Dulbecco’s Modified Eagle’s Medium (DMEM; Welgene, Gyeongsan, Republic of Korea) supplemented with 10% fetal bovine serum and 1% antibiotics (penicillin/streptomycin) at 37 °C in the presence of 5% CO2. To measure the cytotoxicities of peptides against RAW 264.7 cells and L-929 cells, both cell lines were seeded at a density of 1 × 10^5 cells/well in a 96-well plate, to which each concentration of peptide solution (from 1.6 μM to 100 μM) was added, followed by incubation for 22 h. Subsequently, WST-8 (Biomax Co., Ltd., Guri, Republic of Korea) was added at 10% volume of the final solution, and the mixture was incubated for an additional 2 h. Absorbance was measured at 450 nm. Percentages were calculated based on untreated cells.
# RAW 264.7 cells = test: Cytotoxicity, WST-8; assay type: cell-based, mouse; conditions: 100 μM peptide, 24 h
# Description: as §4
# [4] = tested on: ColREC 1557-stimulated RAW 264.7 cells; test: IL-6 secretion in ColREC 1557-infected macrophages, ELISA; assay type: cell-based, mouse; conditions: 1.3 μM peptide, 1 h before ColREC 1557 infection
# Description: as §3
# To investigate the inflammatory response induced by ColREC 1557, RAW 264.7 cells (1 × 10^5 cells/well) were treated with various concentrations of peptide (0.6 to 10 μM) 1 h before bacterial infection. The control was an untreated cell. ColREC 1557 that had been cultured in LB broth overnight and sub-cultured to the exponential phase were harvested, suspended in DMEM, and used to infect RAW 264.7 cells to a final concentration of 1 × 10^5 cells/well. Subsequent nitrite and IL-6 detection was performed as described in Section 2.15.
# [5] = tested on: colistin-resistant K. pneumoniae NMS 139 (ColRKP 139); assay type: cell-based, Klebsiella pneumoniae; conditions: MH broth, 2 × 10^5 cells/mL, 16 h, 37 °C, OD600, >95% killing
# From the text: as §1, §2
# all bacterial strains = test: Average MIC over all strains and relative selective index; assay type: cell-based; conditions: 8 strains; MIC above 64 μM taken as 128 μM
# Description: as §2
compound,measurement,setting,value
"CC[C@H](C)CCCCC(=O)N[C@@H](CCN)C(=O)N[C@H](C(=O)N[C@@H](CCN)C(=O)N[C@H]1CCNC(=O)[C@H]([C@@H](C)O)NC(=O)[C@H](CCN)NC(=O)[C@H](CCN)NC(=O)[C@H](CC(C)C)NC(=O)[C@@H](CC(C)C)NC(=O)[C@H](CCN)NC1=O)[C@@H](C)O [colistin] (HELM PEPTIDE1{[CC[C@H](C)CCCCC(=O)[*:2]].[Dab].T.[Dab].[Dab].[Dab].[dL].L.[Dab].[Dab].T}$PEPTIDE1,PEPTIDE1,5:R3-11:R2$$$V2.0; N-terminus assumed; bridges inferred)",inhibition of biofilm formation,ColREC 12,28.9%
same,Minimal Inhibitory Concentration,[1],4 µM
same,Minimal Inhibitory Concentration,[2],8 µM
same,Minimal Inhibitory Concentration,E. coli (KCTC 1682),0.25 µM
same,inhibition of IL-6 secretion,[3],over 90%
same,viability / survival rate,L-929 cells,95.0%
same,cell viability,RAW 264.7 cells,70.1%
same,inhibition of IL-6,[4],18.4%
same,Minimal Inhibitory Concentration,[5],>64 µM
same,"GM (geometric mean, average MIC value of all bacterial strains)",all bacterial strains,33.72 µM
